We go through 18 compounds from publication PMC3713097 (Chemical research in toxicology, 2013).

The target of one data set is T1, P450 2A13 (Homo sapiens, UniProt Q16696).
T1 sequence (Q16696 with tags, fused parts or gaps limits assumed): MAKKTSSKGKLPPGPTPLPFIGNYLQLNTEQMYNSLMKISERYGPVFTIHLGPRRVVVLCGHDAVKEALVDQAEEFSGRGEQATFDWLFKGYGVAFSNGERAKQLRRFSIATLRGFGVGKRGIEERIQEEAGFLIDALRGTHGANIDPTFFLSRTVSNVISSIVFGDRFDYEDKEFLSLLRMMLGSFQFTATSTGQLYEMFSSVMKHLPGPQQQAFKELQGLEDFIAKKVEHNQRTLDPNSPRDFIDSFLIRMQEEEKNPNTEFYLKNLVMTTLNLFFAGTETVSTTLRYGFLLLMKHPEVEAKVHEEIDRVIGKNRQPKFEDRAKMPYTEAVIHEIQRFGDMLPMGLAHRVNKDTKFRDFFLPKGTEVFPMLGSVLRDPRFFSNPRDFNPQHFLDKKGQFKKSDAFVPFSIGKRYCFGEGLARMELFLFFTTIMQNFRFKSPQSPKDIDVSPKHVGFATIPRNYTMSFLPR
The experiment in a line: Spectral binding titration with purified P450 2A13.

Data set [1] deals with T2, P450 1B1 (Homo sapiens, UniProt Q16678, L432V).
T2 sequence (Q16678 1-543 L432V): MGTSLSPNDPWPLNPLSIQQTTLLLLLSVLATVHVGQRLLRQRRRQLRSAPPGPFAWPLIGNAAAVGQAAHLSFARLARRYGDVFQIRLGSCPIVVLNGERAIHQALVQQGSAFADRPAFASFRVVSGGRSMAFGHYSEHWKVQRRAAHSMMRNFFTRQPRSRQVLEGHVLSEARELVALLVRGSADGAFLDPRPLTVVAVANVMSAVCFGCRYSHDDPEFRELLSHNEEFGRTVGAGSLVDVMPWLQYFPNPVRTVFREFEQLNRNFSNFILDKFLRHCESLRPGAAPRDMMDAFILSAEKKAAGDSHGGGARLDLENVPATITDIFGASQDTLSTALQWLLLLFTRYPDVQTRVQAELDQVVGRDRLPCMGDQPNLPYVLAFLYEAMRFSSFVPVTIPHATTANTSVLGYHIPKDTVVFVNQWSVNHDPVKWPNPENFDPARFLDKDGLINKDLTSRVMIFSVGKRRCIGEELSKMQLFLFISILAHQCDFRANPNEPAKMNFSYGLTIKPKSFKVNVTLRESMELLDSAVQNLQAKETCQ
As to the kind of experiment: Spectral binding titration with purified P450 1B1.

The target in data set [2] is T3, P450 2A6 (Homo sapiens, UniProt P11509).
T3 sequence (P11509 1-494): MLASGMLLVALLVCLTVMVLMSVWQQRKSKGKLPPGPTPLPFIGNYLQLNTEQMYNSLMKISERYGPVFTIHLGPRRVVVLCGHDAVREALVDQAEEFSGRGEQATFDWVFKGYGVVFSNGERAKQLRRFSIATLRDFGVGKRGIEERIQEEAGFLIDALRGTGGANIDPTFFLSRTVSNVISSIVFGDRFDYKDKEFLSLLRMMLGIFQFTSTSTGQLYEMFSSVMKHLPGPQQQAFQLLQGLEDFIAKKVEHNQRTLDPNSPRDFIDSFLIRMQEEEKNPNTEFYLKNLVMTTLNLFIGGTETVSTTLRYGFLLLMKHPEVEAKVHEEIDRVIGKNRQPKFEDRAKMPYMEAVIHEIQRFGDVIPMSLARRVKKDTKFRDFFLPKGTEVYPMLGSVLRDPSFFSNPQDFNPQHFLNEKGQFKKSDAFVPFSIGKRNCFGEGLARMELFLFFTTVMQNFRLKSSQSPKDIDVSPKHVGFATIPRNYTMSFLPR
The note with it: 10 nM P450, 2.5 µM procarcinogen, means ± range of duplicate experiments.

For data set [3], the target named is T2, P450 1B1. The note with it: 10 nM P450, 2.5 µM procarcinogen, means ± range of duplicate experiments.
Another data set has as its target T4, human P450 2A13 (Homo sapiens, UniProt Q16696).
T4 sequence (Q16696 31-494 limits assumed): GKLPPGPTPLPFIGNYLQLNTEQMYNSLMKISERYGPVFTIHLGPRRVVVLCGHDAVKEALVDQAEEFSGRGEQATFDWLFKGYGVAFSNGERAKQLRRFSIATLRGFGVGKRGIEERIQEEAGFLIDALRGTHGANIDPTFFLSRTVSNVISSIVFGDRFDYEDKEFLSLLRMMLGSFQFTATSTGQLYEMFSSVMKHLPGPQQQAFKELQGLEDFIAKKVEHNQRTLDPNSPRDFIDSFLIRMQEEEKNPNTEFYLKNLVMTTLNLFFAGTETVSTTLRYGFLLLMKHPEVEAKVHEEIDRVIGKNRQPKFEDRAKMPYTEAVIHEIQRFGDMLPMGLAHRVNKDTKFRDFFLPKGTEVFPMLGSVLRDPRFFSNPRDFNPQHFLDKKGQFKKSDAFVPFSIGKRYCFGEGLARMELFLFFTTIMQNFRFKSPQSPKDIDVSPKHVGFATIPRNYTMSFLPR
The note with it: 10 nM P450, 2.5 µM procarcinogen, means ± range of duplicate experiments.

The target in data set [4] is T3, P450 2A6. The experiment in a line: Spectral binding titration with purified P450 2A6.
Where [5] appears, read: P450 1B1, Reverse Type I spectra.
Where [6] appears, read: P450 1B1, Reverse Type I spectra, ± SE.
[7] abbreviates: P450 2A13, Type I spectra, ± SE.

Like-named read-outs stand apart in the source and are kept apart here. Some results are limits rather than exact numbers.

On to `Cc1cc2ccccc2c2ccc3ccccc3c12` [5-methylchrysene], for which the Kd was above 20 µM at P450 2A13 and 6.9 ± 2.4 µM at P450 1B1 [1]. Besides, the “ΔAmax/ Ks” value at P450 1B1 [1] (setting [5]) is 0.0064. This compound showed a ΔAmax at P450 1B1 [1] (setting [6]) of 0.044 ± 0.008.
As for `OC1C=Cc2c(ccc3c2ccc2ccccc23)C1O` (stereo not drawn) [chrysene-1,2-diol, 1,2-dihydroxy-1,2-dihydrochrysene], the Kd at P450 2A13 and at P450 1B1 [1] was above 20 µM in each case. Also, the “activation of procarcinogens umu gene expression” value (from here on “activation”) on P450 2A6 [2] is recorded as below 10 units/min/nmol P450; on P450 1B1 [3] it was 220 ± 19 units/min/nmol P450; at human P450 2A13, below 10 units/min/nmol P450.
Regarding `Cc1cc2ccccc2c2ccc3c(c12)C=CC(O)C3O` (stereo not drawn) [5MeCh-1,2-diol, 1,2-dihydroxy-1,2-dihydro-5-methylchrysene], the Kd on P450 2A13 and at P450 1B1 [1] was above 20 µM each time. The “activation” value on P450 2A6 [2] is given as 52 ± 11 units/min/nmol P450; on P450 1B1 [3] it was 2600 ± 180 units/min/nmol P450; at human P450 2A13, 86 ± 15 units/min/nmol P450.
As for `Nc1ccc2c(c1)Cc1ccccc1-2` [2-AF, 2-aminofluorene], the Kd at P450 2A13 is above 20 µM; at P450 2A6 [4], above 20 µM; on P450 1B1 [1], 4.6 ± 1.3 µM.
`O=[N+]([O-])c1ccc2ccc3cccc4ccc1c2c34` [1-nitropyrene]: the Kd at P450 2A13 was 0.23 ± 0.08 µM; on P450 2A6 [4], above 20 µM; on P450 1B1 [1] (human, pH 7.4), 1.4 ± 0.001 µM. In addition, the “ΔAmax/ Ks” value at P450 2A13 (P450 2A13, Type I spectra) is 0.24; on P450 1B1 [1] (setting [5]) it was 0.026. The ΔAmax is given as 0.055 ± 0.004 at P450 2A13 (setting [7]) and 0.037 ± 0.001 on P450 1B1 [1] (setting [6]). In addition, the “activation” value at P450 2A6 [2], on P450 1B1 [3] and on human P450 2A13 was below 10 units/min/nmol P450 throughout.
Take `Cc1c2c(c(C)c3ccccc13)C(O)C(O)c1ccccc1-2` (stereo not drawn) [7,12-DMBA-5,6-diol, 5,6-dihydroxy-5,6-dihydro-7,12-dimethylbenz[a]anthracene]: the Kd at P450 1B1 [1] is 38 ± 3.7 µM. For the same compound, on P450 1B1 [1] (setting [5]), the “ΔAmax/ Ks” value is listed as 0.0012. Besides, the ΔAmax on P450 1B1 [1] (setting [6]) is 0.044 ± 0.003.
As to `c1ccc2c(c1)ccc1c3ccccc3ccc21` [chrysene], the Kd at P450 2A13 and on P450 1B1 [1] was above 20 µM in each case.
Take `Cn1c(N)nc2c3cccnc3ccc21` [IQ, 2-amino-3-methylimiidazo[4,5-f]quinoline]: the “activation” value turned out to be 75 ± 11 units/min/nmol P450 on P450 2A6 [2], 220 ± 29 units/min/nmol P450 at P450 1B1 [3] and 430 ± 40 units/min/nmol P450 at human P450 2A13.
aflatoxin B1 [AFB1]: the Kd was above 20 µM at P450 2A13 (read-out: Ks, pH 7.4) and above 20 µM on P450 2A6 [4] (read-out: Ks, pH 7.4).
Consider `Nc1ccc2cc3ccccc3cc2c1` [2-AA, 2-aminoanthracene], for which the Kd is above 20 µM on P450 2A13, above 20 µM on P450 2A6 [4] and 33 ± 36 µM at P450 1B1 [1]. On P450 1B1 [1] (setting [5]), the “ΔAmax/ Ks” value amounted to 0.0026. For the same compound, the ΔAmax at P450 1B1 [1] (setting [6]) is on record as 0.085 ± 0.076. In addition, the “activation” value at P450 2A6 [2] is reported as 1200 ± 89 units/min/nmol P450; on P450 1B1 [3], 1900 ± 210 units/min/nmol P450; at human P450 2A13, 560 ± 40 units/min/nmol P450.
Take `Cn1c(N)nc2ncc(-c3ccccc3)cc21` [PhIP, 2-amino-1-methyl-6-phenylimidazo[4,5-b]pyridine]: the Kd on P450 1B1 [1] was above 20 µM. Further, the “activation” value at P450 2A6 [2], at P450 1B1 [3] and on human P450 2A13 was below 10 units/min/nmol P450 in each case.
Regarding `OC1C=Cc2c(ccc3c4ccccc4c4ccccc4c23)C1O` (stereo not drawn) [B[g]C-11,12-diol, 11,12-dihydroxy-11,12-dihydrobenzo[g]chrysene], the “activation” value on P450 2A6 [2] was below 10 units/min/nmol P450; on P450 1B1 [3], 207 ± 25 units/min/nmol P450; on human P450 2A13 it was below 10 units/min/nmol P450.
Turning to `OC1C=Cc2c(ccc3ccc4ccccc4c23)C1O` (stereo not drawn) [B[c]Phe-3,4-diol, 3,4-dihydroxy-3,4-dihydrobenzo[c]phenanthrene], the Kd on P450 2A13 and at P450 1B1 [1] was above 20 µM throughout. Also, the “activation” value came to 33 ± 10 units/min/nmol P450 on P450 2A6 [2], 140 ± 21 units/min/nmol P450 on P450 1B1 [3] and 45 ± 8 units/min/nmol P450 at human P450 2A13.
In turn, `OC1c2cccc3ccc4c5ccccc5cc(c4c23)C1O` (stereo not drawn) [B[a]P-4,5-diol, 4,5-dihydroxy-4,5-dihydrobenzo[a]pyrene] came in with a Kd on P450 1B1 [1] of 23 ± 10 µM.
Consider `c1ccc2cc3c(ccc4ccccc43)cc2c1` [B[a]A, benz[a]anthracene], for which the Kd on P450 2A13 (read-out: Ks, P450 2A13, Type I spectra, 1.0 µM P450, pH 7.4, ± SE) was above 20 µM; on P450 1B1 [1] (read-out: Ks, P450 1B1, Reverse Type I spectra, 1.0 µM P450, pH 7.4, ± SE), above 20 µM.
Consider `OC1C=C2c3ccccc3-c3cccc(c32)C1O` (stereo not drawn) [FA-2,3-diol, 2,3-dihydroxy-2,3-dihydrofluoranthene], for which the results for the Kd at P450 2A13 and on P450 1B1 [1] were 0.86 ± 0.16 µM and 7.4 ± 1.3 µM, respectively. Besides, the “ΔAmax/ Ks” value is 0.060 at P450 2A13 (P450 2A13, Type I spectra) and 0.0058 at P450 1B1 [1] (setting [5]). For the same compound, the ΔAmax on P450 2A13 (setting [7]) came to 0.052 ± 0.003; at P450 1B1 [1] (setting [6]), 0.043 ± 0.003. Besides, the “activation” value at P450 2A6 [2] was 36 ± 8 units/min/nmol P450; on P450 1B1 [3], 30 ± 11 units/min/nmol P450; on human P450 2A13, 88 ± 13 units/min/nmol P450.
On to `CC(=O)Nc1ccc2c(c1)Cc1ccccc1-2` [2-AAF, 2-acetamidofluorene], for which the Kd on P450 1B1 [1] amounted to 20 ± 7.8 µM. In addition, the “ΔAmax/ Ks” value on P450 1B1 [1] (setting [5]) turned out to be 0.0018. For the same compound, the ΔAmax on P450 1B1 [1] (setting [6]) turned out to be 0.035 ± 0.009. Also, the “activation” value on P450 2A6 [2], on P450 1B1 [3] and on human P450 2A13 was below 10 units/min/nmol P450 each time.
As to `c1ccc2c(c1)cc1ccc3cccc4ccc2c1c34` [B[a]P, benzo[a]pyrene], the Kd on P450 2A13, on P450 2A6 [4] and on P450 1B1 [1] was above 20 µM in each case.
